{"source": "patent US20180161433A1", "about": "“SIZE TUNABLE MICROBIAL MIMETICS FOR IMMUNOTHERAPY OF THYROID CARCINOMAS AND SOLID TUMORS” (priority 2017, published 2018)", "molecules": {"B1": {"name": "PEGylated IL-10: PEGylated IL-10 given to patients (protein, UniProt P22301 19-178, looked up)", "Interleukin-10": "SPGQGTQSENSCTHFPGNLPNMLRDLRDAFSRVKTFFQMKDQLDNLLLKESLLEDFKGYLGCQALSEMIQFYLEEVMPQAENQDPDIKAHVNSLGENLKTLRLRLRRCHRFLPCENKSKAVEQVKNAFNKLQEKGIYKAMSEFDIFINYIEAYMTMKIRN", "modifications": "PEGylated"}}, "key": {"[1]": {"tested_on": "Human peripheral blood mononuclear cells (PBMCs)", "assay": "Induced cytokine secretion by PBMCs (ELISA)", "format": "cell-based", "conditions": "for cytokine secretion when complexed to the CAL2 peptide: complexed to CAL2, versus the component on its own; for cytokine secretion, component on its own: individual component, 24 hours", "method": "(§1) FIG. 10 is bar graph showing the induced secretion of IL-6 by PBMCs exposed to PolyIC, RNA248, DNA4, DNA10, PolyIC complexed with SEQ. ID NO. 36 (CAL2), RNA248 complexed with SEQ. ID NO. 36, DNA4 complexed with SEQ. ID NO. 36, DNA10 complexed with SEQ. ID NO. 36, DNA4 and RNA248 complexed with SEQ. ID NO. 36, Pam2CSK4-conjugated SEQ. ID NO. 36 complexed with DNA4 and SEQ. ID NO. 36 alone. Each well contained ˜300,000 fresh PBMCs in a total volume of 100 μL of RPMI medium. Solutions of SEQ. ID NO. 36, PolyIC, DNA4, DNA10, Pam2CSK4-conjugated SEQ. ID NO. 36 were all pre-mixed to concentrations of 50 ug/mL (for each peptide reagent) and then added to wells in volumes of 100 uL, such that each well contained a 200 uL volume of PBMCs and reagents. Wells were run in triplicate and the mean value is indicated.\nas §1, with “FIG. 11” for “FIG. 10”, “of IL-10” for “of IL-6”\nFIG. 12 is a bar graph showing the induced secretion of IL-12 by PBMCs exposed to PolyIC, RNA248, DNA4, DNA10, PolyIC complexed with SEQ. ID NO. 36 (CAL2), RNA248 complexed with SEQ. ID NO. 36, DNA4 complexed with SEQ. ID NO. 36, DNA10 complexed with SEQ. ID NO. 36, DNA4 and RNA248 complexed with SEQ. ID NO. 36, Pam2CSK4-conjugated SEQ. ID NO. 36 complexed with DNA4 and SEQ. ID NO. 36 alone. Each well contained ˜300,000 fresh PBMCs in a total volume of 100 μL of RPMI medium. Solutions of SEQ. ID NO. 36, PolyIC, DNA4, DNA10, Pam2CSK4-conjugated SEQ. ID NO. 36 were all pre-mixed to concentrations of 50 ug/mL (for each peptide reagent) and then added to wells in volumes of 100 uL, such that each well contained a 200 uL volume of PBMCs and reagents. Wells were run in triplicate and the mean value is indicated.\nFIG. 13 is a bar graph showing the induced secretion of IL-15 by PBMCs exposed to PolyIC, RNA248, DNA4, DNA10, PolyIC complexed with SEQ. ID NO. 36 (CAL2), RNA248 complexed with SEQ. ID NO. 36, DNA4 complexed with SEQ. ID NO. 36, DNA10 complexed with SEQ. ID NO. 36, DNA4 and RNA248 complexed with SEQ. ID NO. 36, Pam2CSK4-conjugated SEQ. ID NO. 36 complexed with DNA4 and SEQ. ID NO. 36 alone. Each well contained ˜300,000 fresh PBMCs in a total volume of 100 μL of RPMI medium. Solutions of SEQ. ID NO. 36, PolyIC, DNA4, DNA10, Pam2CSK4-conjugated SEQ. ID NO. 36 were all pre-mixed to concentrations of 50 ug/mL (for each peptide reagent) and then added to wells in volumes of 100 uL, such that each well contained a 200 uL volume of PBMCs and reagents. Wells were run in triplicate and the mean value is indicated.\nas §1, with “FIG. 14” for “FIG. 10”, “is a” for “is”, “of IFN-α” for “of IL-6”, “reagents. […]” for “reagents. Wells were run in triplicate and the mean value is indicated.”"}, "DNA4/RNA248": {"tested_on": "DNA4/RNA248", "assay": "MM complex stability by gel electrophoresis", "format": "physicochemical", "conditions": "for complex formation with DNA4/RNA248: disappearance of free DNA4/RNA248 at sufficient peptide concentrations", "method": "FIG. 9 is an image generated from a gel electrophoresis experiment (20 V/cm), whereby SEQ. ID NO. 36 (1 mg/mL) was mixed with DNA4/RNA248 (1 mg/mL) at ratios of 1:4 (Lane #2), 1:2 (Lane #3), 1:1 (Lane #4), 2:1 (Lane #5), and 4:1 (Lane #6) SEQ. ID NO. 36 to DNA4/RNA248. For reference, only DNA4/RNA248 was placed in Lane #1. The DNA4/RNA248 mixture travels in the gel away from the negative electrode (top) due its inherent negative charge.\nGiven the importance of forming stable complexes of antigenic cargo with immune-stimulatory molecules, the stability of MM was characterized using gel electrophoresis. MM were formed by mixing CAL2 (SEQ. ID NO. 36) with […] at varying ratios. […] The experiment was repeated for several other peptides, including SEQ. ID NOS. 34 and 42. […] Furthermore, the intensity of each band decreased as concentration of peptide increased. The presence of the linker sequence, RRHRKRR (SEQ. ID NO. 64), was determined to be critical for stable complexation. Separately, solutions of MM were tested after sitting at room temperature for 2 weeks yielding nearly identical results."}, "[2]": {"tested_on": "metastatic iodine-refractory differentiated thyroid cancer (DTC)", "conditions": "cited from earlier work"}, "[3]": {"tested_on": "activated circulating CTLs", "conditions": "PD-1+ and LAG-3+ gated flow cytometry; cited from earlier work"}, "[4]": {"conditions": "25 μg/mL, 24 hours, 300,000 PBMCs per well"}}, "note": "Entries after “also recorded” stand apart in the source; their conditions may differ. Strand notation (5' to 3'): a small letter for the sugar, then the base; units joined by * are phosphorothioate-linked, units joined directly phosphodiester-linked; [ ] holds rarer units or linkages, { } end groups; capitals alone tell only the bases. r = 2'-OH (RNA)"}
{"molecule": "5′-TCGTCGGTTTCGGCGCGCGCCG-3′ (DNA, all phosphorothioate, methylation of C not given here; further chemistry not fully specified) [DNA4]", "values": [{"measurement": "induced secretion of IL-12", "setting": "[1]; [4]", "result": "does not induce secretion"}, {"measurement": "induced secretion of IL-15", "setting": "[1]; [4]", "result": "does not induce secretion"}, {"measurement": "cytokine secretion when complexed to the CAL2 peptide", "setting": "[1]", "result": "marked increase"}, {"measurement": "cytokine secretion, component on its own", "setting": "[1]; 25 μg/mL", "result": "minimal"}]}
{"molecule": "5′-TTCGGCGCGCGCGCGCGCGCGCCGTT-3′ (DNA, all phosphorothioate, methylation of C not given here; further chemistry not fully specified) [DNA10]", "values": [{"measurement": "cytokine secretion when complexed to the CAL2 peptide", "setting": "[1]", "result": "marked increase"}, {"measurement": "cytokine secretion, component on its own", "setting": "[1]; 25 μg/mL", "result": "minimal"}]}
{"molecule": "5′-guuggugguugugugagcgu-3′ (rG*rU*rU*rG*rG*rU*rG*rG*rU*rU*rG*rU*rG*rU*rG*rA*rG*rC*rG*rU) [RNA248]", "values": [{"measurement": "cytokine secretion when complexed to the CAL2 peptide", "setting": "[1]", "result": "marked increase"}, {"measurement": "cytokine secretion, component on its own", "setting": "[1]; 25 μg/mL", "result": "minimal; also recorded: very minimal"}]}
{"molecule": "34 (RRHRKRRLSTCMLGTYTQDFNKFHTFPQTAIRRHRKRR; targeting calcitonin) [compound 34]", "values": [{"measurement": "complex formation with DNA4/RNA248", "setting": "DNA4/RNA248", "result": "stable complexes were formed"}]}
{"molecule": "42 (RIPVKWTAIESLFDHRRHRKRR; targeting RETM918T) [compound 42]", "values": [{"measurement": "complex formation with DNA4/RNA248", "setting": "DNA4/RNA248", "result": "stable complexes were formed"}]}
{"molecule": "COc1cc2nccc(Oc3ccc(NC(=O)NC4CC4)c(Cl)c3)c2cc1C(N)=O", "note": "[lenvatinib]", "values": [{"measurement": "overall survival benefits", "setting": "[2]", "result": "marginal"}, {"measurement": "progression free survival", "setting": "[2]", "result": "improved"}]}
{"molecule": "CNC(=O)c1cc(Oc2ccc(NC(=O)Nc3ccc(Cl)c(C(F)(F)F)c3)cc2)ccn1", "note": "[sorafenib]", "values": [{"measurement": "overall survival benefits", "setting": "[2]", "result": "marginal"}, {"measurement": "progression free survival", "setting": "[2]", "result": "improved"}]}
{"molecule": "RRHRKRRLSTCMLGTYTQDFNKFHTFPQTAI (targeting calcitonin) [SEQ. ID NO. 36]", "values": [{"measurement": "cytokine secretion, component on its own", "setting": "[1]; 25 μg/mL", "result": "very minimal"}, {"measurement": "nucleotide bands in gel", "setting": "DNA4/RNA248; SEQ. ID NO. 36 to DNA4/RNA248 2:1 (Lane #5) and 4:1 (Lane #6), 20 V/cm, FIG. 9", "result": "no nucleotide bands are seen"}, {"measurement": "free DNA4/RNA248 in gel", "setting": "DNA4/RNA248; peptide to DNA4/RNA248 ratios exceeding 2:1, electric field of 20 V/cm", "result": "no free DNA4/RNA248 could be visualized"}]}
{"molecule": "B1", "values": [{"measurement": "numbers of activated circulating CTLs", "setting": "[3]", "result": "increased"}]}
